Experimental data from patent publication US11298412B2, “Sphingoid compounds for prophylaxis and/or therapy of coronaviridae infection” (priority 2020, dated 2022).
Entries after “also recorded” stand apart in the source; their conditions may differ.

Legend:
[1] = test system: rhinovirus strain RV2 (minor strain); assay: Rhinovirus RV2 infection of Hela cells, Trypan Blue cell death; assay type: cell-based; settings: 10 μM and 20 μM, added 10 min before or 60 min or 240 min after infection, 4 days
[2] = test system: rhinovirus strain RV14 (major strain); assay: Rhinovirus RV14 infection of Hela cells, Trypan Blue cell death; assay type: cell-based; settings: 10 μM and 20 μM, added 10 min before or 60 min or 240 min after infection, 4 days
[3] = Surface sphingosine in mouse nasal mucosa after intranasal application, in situ sphingosine kinase assay; assay type: in vivo; settings: wild-type mice; 10 μL of 10 μM or 100 μM into the nostrils; 1, 4 and 8 hrs; without washing
Method: Sphingosine (SPH) was applied into the nose of wild-type mice and the concentration of sphingosine on the epithelial cell surface was determined after 1, 4 and 8 hrs (a.i.: after injection of sphingosine). To this end, 10 μL of a 10 μM or a 100 μM sphingosine solution was applied into the nostrils of wild-type mice. Controls received the solvent, i.e. octylglucopyranoside at the same concentration used when sphingosine was applied, or were left untreated. Mice were slightly and very briefly anesthetized with ether. For the intranasal application we used a blunt-end 30 g needle that was covered with a thin plastic film. The blunt-ended needle was inserted into the nostrils approximately 2 mm. Mice were sacrificed after the indicated time, the nasal bone was removed, placed on a 30° C. pre-warmed plastic plate and an area of 2 mm×2 mm was immediately incubated with 0.001 units of sphingosine kinase 1 (#6068-SK-010, R&D) in 4 μl of 150 mM sodium acetate (pH 7.4), 1 μM ATP, and 10 μCi [^32P]γATP/sample. Controls were incubated with the same buffer without sphingosine kinase or were left untreated. […] The TLC plates were analyzed with a phosphoimager. Surface sphingosine levels were determined with a standard curve of C18-sphingosine. […]

[4] = test system: RV1b; assay: Binding of sphingosine to RV1b immobilized on agarose beads, remaining sphingosine by kinase assay; set-up: species or system rhinovirus; settings: 250 μM sphingosine in PBS pH 7.0; 4 hrs at 4° C.
Method: As a complement to the above study, RV1b (obtained from ATCC) were immobilized to agarose beads and tested for binding of sphingosine (SPH). To this end, we incubated 1 μg/ml anti-RV1b antibodies with 10^6 CFU RV1b for 1 h at 4° C. in H/S, added 50 μL agarose protein A/G beads (Santa Cruz Inc.), incubated for an additional 1 h at 4° C. and washed the immobilized precipitates 5-times in H/S. We resuspended the beads in 500 μL PBS (pH 7.0) containing 250 μM sphingosine. Samples were incubated for 4 hrs at 4° C., pelleted and aliquots of the supernatants were added to 50 mM HEPES (pH 7.4), 250 mM NaCl, 30 mM MgCl2, 0.001 units sphingosine kinase (R&D), 1 mM ATP and 10 μCi [^32P]γATP. The kinase reaction was performed for 1 hr at 30° C., stopped by addition of 20 μl 1N HCl, 800 μl CHCl3/CH3OH/1N HCl (100:200:1, v/v/v), 240 μl CHCl3 and 2 M KCl. Phases were separated, the lower phase was collected, dried, dissolved in 20 μL of CHCl3:CH3OH (1:1, v/v) and separated on Silica G60 thin layer chromatography (TLC) plates using CHCl3/CH3OH/acetic acid/H2O (90:90:15:5, v/v/v/v). The TLC plates were exposed to radiography films, spots were removed from the plates, and the incorporation of [^32P] into sphingosine measured by liquid scintillation counting. Sphingosine was determined using a standard curve of C18-SPH. […]

[5] = test system: pp-VSV-SARS-CoV-2 spike; assay type: cell-based

## CCCCCCCCCCCCC/C=C/[C@@H](O)[C@@H](N)CO [sphingosine, (2S,3R,4E)-2-amino-4-octadecene-1,3-diol]
[1]
  infection with RV2 (percentage of dead cells): prevented the infection; also recorded: prevention of RSV2 and RSV14 infection
[2]
  infection with RV14 (percentage of dead cells): prevented the infection; also recorded: prevention of RSV2 and RSV14 infection
[3]
  sphingosine concentration on the nasal epithelial cell surface / in the mucosa: dose-dependent accumulation of sphingosine in the mucosa; also recorded: dose dependent increase in the local sphingosine concentration in the nasal mucosa
[4]
  binding of sphingosine to RV1b-coupled agarose beads (remaining sphingosine in the supernatant): efficiently bind sphingosine
[5]
  infection of human nasal epithelial cells with pp-VSV-SARS-CoV-2 spike (eGFP positive cells): prevented infection; also recorded: prevents infection of freshly isolated human nasal endothelial cells by SARS-CoV-2
